Source: PubChem BioAssay AID256 (DTP/NCI, 2004)
Several values for one entry are separate records, joined by “and”; a condition that tells them apart may be missing. Identical values can stand only once. Inconclusive results and toxic doses are left out.

Tested on: CD2F1 mice, L1210 leukemia ip, survival T/C
Assay: NCI In Vivo Anticancer Drug Screen. Data for tumor model L1210 Leukemia (intraperitoneal) in CD2F1 (CDF1) mice
Details: higher = longer survival
Outline: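 Implant tumor; dose compound or vehicle; measure endpoint in both groups; report treated divided by control.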

[1] = endpoint: mean survival time, dose: 100.0 mg/kg/injection, schedule: Q01DX001 (ip), vehicle: saline with Tween-80
[2] = endpoint: mean survival time, dose: 200.0 mg/kg/injection, schedule: Q01DX001 (ip), vehicle: saline with Tween-80
[3] = endpoint: mean survival time, dose: 400.0 mg/kg/injection, schedule: Q01DX001 (ip), vehicle: saline with Tween-80
[4] = endpoint: mean survival time, dose: 100.0 mg/kg/injection, schedule: Q04DX003 (ip), vehicle: saline
[5] = endpoint: mean survival time, dose: 100.0 mg/kg/injection, schedule: Q01DX001 (ip), vehicle: saline
[6] = endpoint: mean survival time, dose: 100.0 mg/kg/injection, schedule: Q01DX009 (ip), vehicle: saline with Tween-80
[7] = endpoint: mean survival time, dose: 200.0 mg/kg/injection, schedule: Q01DX009 (ip), vehicle: saline with Tween-80
[8] = endpoint: mean survival time, dose: 400.0 mg/kg/injection, schedule: Q01DX009 (ip), vehicle: saline with Tween-80
[9] = endpoint: mean survival time, dose: 100.0 mg/kg/injection, schedule: Q04DX003 (ip), vehicle: saline with Tween-80
[10] = endpoint: mean survival time, dose: 200.0 mg/kg/injection, schedule: Q04DX003 (ip), vehicle: saline with Tween-80
[11] = endpoint: mean survival time, dose: 400.0 mg/kg/injection, schedule: Q04DX003 (ip), vehicle: saline with Tween-80

## Cc1ccc(S)cc1
[1]
  T/C: 98 % of control
endpoint: mean survival time, dose: 100.0 mg/kg/injection, schedule: Q04DX003 (ip), vehicle: saline sonified
  T/C: 100 % of control
[2]
  T/C: 90 % of control
endpoint: mean survival time, dose: 200.0 mg/kg/injection, schedule: Q04DX003 (ip), vehicle: saline sonified
  T/C: 95 % of control
[3]
  T/C: 90 % of control
endpoint: mean survival time, dose: 400.0 mg/kg/injection, schedule: Q04DX003 (ip), vehicle: saline sonified
  T/C: 95 % of control

## CC(O)c1ccc2c(c1)N(CCCN1CCN(CCO)CC1)c1ccccc1S2 (stereo unspecified)
[4]
  T/C: 97 % of control

## CC/C=C(\C)C=O
[5]
  T/C: 100 % of control
endpoint: mean survival time, dose: 200.0 mg/kg/injection, schedule: Q01DX001 (ip), vehicle: saline
  T/C: 97 % of control
endpoint: mean survival time, dose: 400.0 mg/kg/injection, schedule: Q01DX001 (ip), vehicle: saline
  T/C: 97 % of control

## O=S(=O)(N/N=C/c1ccccc1)c1ccccc1
endpoint: mean survival time, dose: 12.5 mg/kg/injection, schedule: Q01DX009 (ip), vehicle: Klucel (hydroxypropylcellulose) (HPC)
  T/C: 97 % of control
endpoint: mean survival time, dose: 25.0 mg/kg/injection, schedule: Q01DX009 (ip), vehicle: Klucel (hydroxypropylcellulose) (HPC)
  T/C: 95 % of control
endpoint: mean survival time, dose: 50.0 mg/kg/injection, schedule: Q01DX009 (ip), vehicle: Klucel (hydroxypropylcellulose) (HPC)
  T/C: 90 % of control
endpoint: mean survival time, dose: 100.0 mg/kg/injection, schedule: Q01DX009 (ip), vehicle: Klucel (hydroxypropylcellulose) (HPC)
  T/C: 94 % of control
endpoint: mean survival time, dose: 200.0 mg/kg/injection, schedule: Q01DX009 (ip), vehicle: Klucel (hydroxypropylcellulose) (HPC)
  T/C: 92 % of control
endpoint: mean survival time, dose: 400.0 mg/kg/injection, schedule: Q01DX009 (ip), vehicle: Klucel (hydroxypropylcellulose) (HPC)
  T/C: 97 % of control

## CN(C)CCC(=O)c1ccco1
endpoint: mean survival time, dose: 25.0 mg/kg/injection, schedule: Q01DX001 (ip), vehicle: saline
  T/C: 104 % of control
endpoint: mean survival time, dose: 50.0 mg/kg/injection, schedule: Q01DX001 (ip), vehicle: saline
  T/C: 95 % of control
[5]
  T/C: 97 % of control and 103 % of control

## CC(C#N)C(N)=O (stereo unspecified)
endpoint: mean survival time, dose: 12.5 mg/kg/injection, schedule: Q01DX009 (ip), vehicle: saline
  T/C: 98 % of control
endpoint: mean survival time, dose: 25.0 mg/kg/injection, schedule: Q01DX009 (ip), vehicle: saline
  T/C: 101 % of control
endpoint: mean survival time, dose: 50.0 mg/kg/injection, schedule: Q01DX009 (ip), vehicle: saline
  T/C: 102 % of control

## CC(Br)C(=O)NC(Cc1ccccc1)C(=O)O (stereo unspecified)
[6]
  T/C: 101 % of control
[7]
  T/C: 97 % of control
[8]
  T/C: 97 % of control

## O=c1nc(NCc2cccs2)ccn1C1OC(CO)C(O)C1O (stereo unspecified)
endpoint: median survival time, dose: 12.5 mg/kg/injection, schedule: Q01DX005 (ip), vehicle: water
  T/C: 104 % of control
endpoint: median survival time, dose: 25.0 mg/kg/injection, schedule: Q01DX005 (ip), vehicle: water
  T/C: 103 % of control
endpoint: median survival time, dose: 50.0 mg/kg/injection, schedule: Q01DX005 (ip), vehicle: water
  T/C: 103 % of control
endpoint: median survival time, dose: 100.0 mg/kg/injection, schedule: Q01DX005 (ip), vehicle: water
  T/C: 102 % of control
endpoint: median survival time, dose: 200.0 mg/kg/injection, schedule: Q01DX005 (ip), vehicle: water
  T/C: 102 % of control

## COC(=O)CCS(=O)(=O)CCC(=O)OC
endpoint: mean survival time, dose: 100.0 mg/kg/injection, schedule: Q04DX003 (ip), vehicle: Klucel (hydroxypropylcellulose) (HPC)
  T/C: 103 % of control
endpoint: mean survival time, dose: 200.0 mg/kg/injection, schedule: Q04DX003 (ip), vehicle: Klucel (hydroxypropylcellulose) (HPC)
  T/C: 100 % of control
endpoint: mean survival time, dose: 400.0 mg/kg/injection, schedule: Q04DX003 (ip), vehicle: Klucel (hydroxypropylcellulose) (HPC)
  T/C: 103 % of control

## CS(=O)(=O)c1ncc[nH]1
[9]
  T/C: 100 % of control
[10]
  T/C: 109 % of control
[11]
  T/C: 109 % of control

## CSc1nc(Cl)c2cc(Cl)[nH]c2n1
endpoint: median survival time, dose: 1.5 mg/kg/injection, schedule: Q01DX009 (ip), vehicle: saline with Tween-80
  T/C: 104 % of control
endpoint: median survival time, dose: 3.0 mg/kg/injection, schedule: Q01DX009 (ip), vehicle: saline with Tween-80
  T/C: 107 % of control
endpoint: median survival time, dose: 6.0 mg/kg/injection, schedule: Q01DX009 (ip), vehicle: saline with Tween-80
  T/C: 110 % of control
endpoint: median survival time, dose: 50.0 mg/kg/injection, schedule: Q01DX005 (ip), vehicle: saline with Tween-80
  T/C: 100 % of control
endpoint: median survival time, dose: 100.0 mg/kg/injection, schedule: Q01DX005 (ip), vehicle: saline with Tween-80
  T/C: 101 % of control

## CC(=O)NCCNC(C)=O
[4]
  T/C: 91 % of control
endpoint: mean survival time, dose: 200.0 mg/kg/injection, schedule: Q04DX003 (ip), vehicle: saline
  T/C: 100 % of control
endpoint: mean survival time, dose: 400.0 mg/kg/injection, schedule: Q04DX003 (ip), vehicle: saline
  T/C: 91 % of control

## Cc1ccc(NC(=O)c2ccc(Cl)cc2)c(Br)c1
[9]
  T/C: 103 % of control
[10]
  T/C: 105 % of control
[11]
  T/C: 97 % of control

## CCOC(=O)c1cc(=O)cc(C(=O)OCC)o1
[1]
  T/C: 100 % of control
[2]
  T/C: 100 % of control
[3]
  T/C: 100 % of control

## O=c1c2c([nH]c3ccccc13)CSC2
[9]
  T/C: 92 % of control
[10]
  T/C: 87 % of control
[11]
  T/C: 94 % of control

## N=C(N)c1nn(C2OC(CO)C(O)C2O)c2nc[nH]c(=O)c12 (stereo unspecified)
endpoint: median survival time, dose: 3.12 mg/kg/injection, schedule: Q01DX005 (ip), vehicle: Klucel + Tween-80
  T/C: 122 % of control
endpoint: median survival time, dose: 12.5 mg/kg/injection, schedule: Q01DX005 (ip), vehicle: Klucel + Tween-80
  T/C: 153 % of control
endpoint: median survival time, dose: 25.0 mg/kg/injection, schedule: Q01DX005 (ip), vehicle: Klucel + Tween-80
  T/C: 120 % of control and 89 % of control

## CCCCNC(=O)Nc1ccc(C(=O)OCCCC)cc1
[6]
  T/C: 87 % of control
[9]
  T/C: 101 % of control
[7]
  T/C: 92 % of control
[10]
  T/C: 101 % of control
[8]
  T/C: 92 % of control
[11]
  T/C: 100 % of control

## CC(C)C1=CC2=C(CC1)C1(C)CCCC(C)(C(=O)O)C1CC2 (stereo unspecified)
[6]
  T/C: 98 % of control
[9]
  T/C: 104 % of control
[7]
  T/C: 96 % of control
[10]
  T/C: 98 % of control
[8]
  T/C: 89 % of control
[11]
  T/C: 93 % of control

## CCCCCCCCCCCCN=C(N)C(N)=NCCCCCCCCCCCC
endpoint: mean survival time, dose: 25.0 mg/kg/injection, schedule: Q04DX002 (ip), vehicle: other
  T/C: 93 % of control
endpoint: mean survival time, dose: 50.0 mg/kg/injection, schedule: Q04DX002 (ip), vehicle: other
  T/C: 93 % of control
endpoint: mean survival time, dose: 100.0 mg/kg/injection, schedule: Q04DX002 (ip), vehicle: other
  T/C: 116 % of control

## C=C[Si](c1ccccc1)(c1ccccc1)c1ccccc1
endpoint: mean survival time, dose: 75.0 mg/kg/injection, schedule: Q04DX003 (ip), vehicle: saline
  T/C: 95 % of control
endpoint: mean survival time, dose: 150.0 mg/kg/injection, schedule: Q04DX003 (ip), vehicle: saline
  T/C: 97 % of control
endpoint: mean survival time, dose: 300.0 mg/kg/injection, schedule: Q04DX003 (ip), vehicle: saline
  T/C: 97 % of control

## COc1c(O)cc2c(c1OC)-c1ccc(SC)c(=O)cc1C(NC(C)=O)CC2 (stereo unspecified)
endpoint: median survival time, dose: 0.06 mg/kg/injection, schedule: Q01DX009 (ip), vehicle: Klucel (hydroxypropylcellulose) (HPC)
  T/C: 110 % of control
endpoint: median survival time, dose: 0.12 mg/kg/injection, schedule: Q01DX009 (ip), vehicle: Klucel (hydroxypropylcellulose) (HPC)
  T/C: 110 % of control
endpoint: median survival time, dose: 0.25 mg/kg/injection, schedule: Q01DX009 (ip), vehicle: Klucel (hydroxypropylcellulose) (HPC)
  T/C: 110 % of control
endpoint: median survival time, dose: 0.31 mg/kg/injection, schedule: Q01DX009 (ip), vehicle: DMSO
  T/C: 113 % of control
endpoint: median survival time, dose: 0.31 mg/kg/injection, schedule: Q01DX009 (ip), vehicle: Klucel (hydroxypropylcellulose) (HPC)
  T/C: 118 % of control
endpoint: median survival time, dose: 0.5 mg/kg/injection, schedule: Q01DX009 (ip), vehicle: Klucel (hydroxypropylcellulose) (HPC)
  T/C: 121 % of control
endpoint: median survival time, dose: 0.63 mg/kg/injection, schedule: Q01DX009 (ip), vehicle: DMSO
  T/C: 124 % of control
endpoint: median survival time, dose: 1.0 mg/kg/injection, schedule: Q01DX009 (ip), vehicle: Klucel (hydroxypropylcellulose) (HPC)
  T/C: 105 % of control
endpoint: median survival time, dose: 2.5 mg/kg/injection, schedule: Q01DX009 (oral), vehicle: DMSO
  T/C: 108 % of control
endpoint: median survival time, dose: 5.0 mg/kg/injection, schedule: Q01DX005 (ip), vehicle: Klucel (hydroxypropylcellulose) (HPC)
  T/C: 164 % of control
endpoint: median survival time, dose: 5.0 mg/kg/injection, schedule: Q01DX009 (ip), vehicle: DMSO
  T/C: 172 % of control
endpoint: median survival time, dose: 5.0 mg/kg/injection, schedule: Q01DX009 (oral), vehicle: DMSO
  T/C: 107 % of control
endpoint: median survival time, dose: 10.0 mg/kg/injection, schedule: Q01DX009 (ip), vehicle: DMSO
  T/C: 165 % of control
endpoint: median survival time, dose: 10.0 mg/kg/injection, schedule: Q01DX009 (oral), vehicle: DMSO
  T/C: 116 % of control
endpoint: median survival time, dose: 20.0 mg/kg/injection, schedule: Q01DX005 (ip), vehicle: Klucel (hydroxypropylcellulose) (HPC)
  T/C: 158 % of control
endpoint: median survival time, dose: 20.0 mg/kg/injection, schedule: Q01DX009 (oral), vehicle: DMSO
  T/C: 109 % of control
endpoint: median survival time, dose: 40.0 mg/kg/injection, schedule: Q01DX009 (oral), vehicle: DMSO
  T/C: 107 % of control
